# Where two headings read alike, the source gives them in different places.
# Tests used:
# [1] = Study P038 diltiazem sub-study: adverse events; assay type: in vivo, human; conditions: for AE: Abnormal dreams / AE: Diarrhea / AE: Headache / AE: Nausea / AE: Somnolence / AE: Vessel puncture site hematoma / ECI: Euphoric mood / ECI: Hypnagogic hallucination / ECI: Hypnopompic hallucination / ECI: Sleep paralysis / Subjects with ≥ 1 AE: Study P038 diltiazem sub-study, N = 20
# [2] = assay type: in vivo, human
# [3] = Study P008: adverse events; assay type: in vivo, human; conditions: for AE: Abnormal dreams / AE: Diarrhea / AE: Headache / AE: Nausea / AE: Somnolence / AE: Vessel puncture site hematoma / ECI: Euphoric mood / ECI: Hypnagogic hallucination / ECI: Hypnopompic hallucination / ECI: Sleep paralysis / Subjects with ≥ 1 AE: N = 10
# [4] = assay type: in vivo, human; remark: listed apart in the source
# [5] = Suvorexant pharmacokinetics across both trials; assay type: in vivo; conditions: human, plasma, oral
# [6] = Safety assessments across both studies; assay type: in vivo, human
# [7] = Study P038 rifampin sub-study: adverse events; assay type: in vivo, human; conditions: for AE: Abnormal dreams / AE: Diarrhea / AE: Headache / AE: Nausea / AE: Somnolence / AE: Vessel puncture site hematoma / ECI: Euphoric mood / ECI: Hypnagogic hallucination / ECI: Hypnopompic hallucination / ECI: Sleep paralysis / Subjects with ≥ 1 AE: Study P038 rifampin sub-study, N = 10
# [8] = assay type: in vivo, human; remark: listed apart in the source
# [9] = in vivo; cited from earlier work
# [10] = suvorexant 20 mg + diltiazem, listed as suvorexant
# [11] = suvorexant 40 mg alone, listed as suvorexant
smiles,measurement,setting,value
"Cc1ccc(-n2nccn2)c(C(=O)N2CCN(c3nc4cc(Cl)ccc4o3)CC[C@H]2C)c1 [Suvorexant, suvorexant]",AE: Abnormal dreams,[1]; suvorexant 20 mg + diltiazem,1 (5) n (%)
same,AE: Diarrhea,[1]; suvorexant 20 mg + diltiazem,0 (0) n (%)
same,AE: Headache,[1]; suvorexant 20 mg + diltiazem,1 (5) n (%)
same,AE: Nausea,[1]; suvorexant 20 mg + diltiazem,0 (0) n (%)
same,AE: Somnolence,[1]; suvorexant 20 mg + diltiazem,17 (85) n (%)
same,AE: Vessel puncture site hematoma,[1]; suvorexant 20 mg + diltiazem,1 (5) n (%)
same,ECI: Euphoric mood,[1]; suvorexant 20 mg + diltiazem,1 (5) n (%)
same,ECI: Hypnagogic hallucination,[1]; suvorexant 20 mg + diltiazem,0 (0) n (%)
same,ECI: Hypnopompic hallucination,[1]; suvorexant 20 mg + diltiazem,0 (0) n (%)
same,ECI: Sleep paralysis,[1]; suvorexant 20 mg + diltiazem,0 (0) n (%)
same,Subjects with ≥ 1 AE,[1]; suvorexant 20 mg + diltiazem,18 (90) n (%)
same,ECI: Euphoric mood,[1]; [10],1 n (%)
same,Subjects with ≥ 1 AE,[1]; [10],18 (90%) n (%)
same,AE: Abnormal dreams,[1]; suvorexant 20 mg alone,1 (5) n (%)
same,AE: Diarrhea,[1]; suvorexant 20 mg alone,2 (10) n (%)
same,AE: Headache,[1]; suvorexant 20 mg alone,0 (0) n (%)
same,AE: Nausea,[1]; suvorexant 20 mg alone,2 (10) n (%)
same,AE: Somnolence,[1]; suvorexant 20 mg alone,19 (95) n (%)
same,AE: Vessel puncture site hematoma,[1]; suvorexant 20 mg alone,1 (5) n (%)
same,ECI: Euphoric mood,[1]; suvorexant 20 mg alone,0 (0) n (%)
same,ECI: Hypnagogic hallucination,[1]; suvorexant 20 mg alone,0 (0) n (%)
same,ECI: Hypnopompic hallucination,[1]; suvorexant 20 mg alone,0 (0) n (%)
same,ECI: Sleep paralysis,[1]; suvorexant 20 mg alone,0 (0) n (%)
same,Subjects with ≥ 1 AE,[1]; suvorexant 20 mg alone,20 (100) n (%)
same,Subjects with ≥ 1 AE,"[1]; suvorexant 20 mg alone, listed as suvorexant",20 (100%) n (%)
same,Duration of ECI euphoric mood,[1]; suvorexant 20 mg plus diltiazem,1 h
same,Prolongation (increase) in t½ on co-administration with ketoconazole,"[2]; Study P008, suvorexant 4 mg, ketoconazole 400 mg once daily",8.2 h
same,AUC(0-inf),"[2]; human, plasma, po, 4 mg",2.61 µM·h
same,Cmax,"[2]; human, plasma, po, 4 mg",280 nM
same,Tmax,"[2]; human, plasma, po, 4 mg",1 h
same,half-life,"[2]; human, plasma, po, 4 mg",11.2 h
same,AE: Abnormal dreams,[3]; suvorexant 4 mg + ketoconazole,0 (0) n (%)
same,AE: Diarrhea,[3]; suvorexant 4 mg + ketoconazole,0 (0) n (%)
same,AE: Headache,[3]; suvorexant 4 mg + ketoconazole,1 (10) n (%)
same,AE: Nausea,[3]; suvorexant 4 mg + ketoconazole,0 (0) n (%)
same,AE: Somnolence,[3]; suvorexant 4 mg + ketoconazole,7 (70) n (%)
same,AE: Vessel puncture site hematoma,[3]; suvorexant 4 mg + ketoconazole,0 (0) n (%)
same,ECI: Euphoric mood,[3]; suvorexant 4 mg + ketoconazole,0 (0) n (%)
same,ECI: Hypnagogic hallucination,[3]; suvorexant 4 mg + ketoconazole,0 (0) n (%)
same,ECI: Hypnopompic hallucination,[3]; suvorexant 4 mg + ketoconazole,0 (0) n (%)
same,ECI: Sleep paralysis,[3]; suvorexant 4 mg + ketoconazole,0 (0) n (%)
same,Subjects with ≥ 1 AE,[3]; suvorexant 4 mg + ketoconazole,7 (70) n (%)
same,AEs considered events of clinical interest (ECIs),[3]; suvorexant 4 mg alone or with ketoconazole,no AEs were considered to be ECIs
same,AE: Abnormal dreams,[3]; suvorexant 4 mg alone,0 (0) n (%)
same,AE: Diarrhea,[3]; suvorexant 4 mg alone,0 (0) n (%)
same,AE: Headache,[3]; suvorexant 4 mg alone,0 (0) n (%)
same,AE: Nausea,[3]; suvorexant 4 mg alone,0 (0) n (%)
same,AE: Somnolence,[3]; suvorexant 4 mg alone,6 (60) n (%)
same,AE: Vessel puncture site hematoma,[3]; suvorexant 4 mg alone,0 (0) n (%)
same,ECI: Euphoric mood,[3]; suvorexant 4 mg alone,0 (0) n (%)
same,ECI: Hypnagogic hallucination,[3]; suvorexant 4 mg alone,0 (0) n (%)
same,ECI: Hypnopompic hallucination,[3]; suvorexant 4 mg alone,0 (0) n (%)
same,ECI: Sleep paralysis,[3]; suvorexant 4 mg alone,0 (0) n (%)
same,Subjects with ≥ 1 AE,[3]; suvorexant 4 mg alone,6 (60) n (%)
same,Decrease in suvorexant Cmax on co-administration with rifampin,"[4]; Study P038, suvorexant 40 mg, rifampin 600 mg once daily",64%
same,AUC(0-inf),"[4]; human, plasma, po, 40 mg",13.6 µM·h
same,Cmax,"[4]; human, plasma, po, 40 mg",850 nM
same,Tmax,"[4]; human, plasma, po, 40 mg",2 h
same,half-life,"[4]; human, plasma, po, 40 mg",12.9 h
same,Tmax,[5],1 to 2 h
same,half-life,[5]; 40 mg,11.2 to 12.9 h
same,"Changes in vital signs, laboratory safety tests, physical examination, or ECG monitoring",[6]; across both studies,no clinically meaningful changes
same,Intensity of AEs,"[6]; both trials, the moderate AE was in the P038 diltiazem sub-study","All AEs were mild in intensity, except one moderate AE of headache"
same,Serious AEs or deaths,"[6]; either trial (P008, P038), suvorexant alone or with CYP3A inhibitor/inducer",no serious AEs or deaths
same,Tolerability of single suvorexant doses,"[6]; healthy subjects, co-administered with/without a CYP3A inhibitor/inducer",generally well tolerated
same,AE: Abnormal dreams,[7]; suvorexant 40 mg + rifampin,3 (30) n (%)
same,AE: Diarrhea,[7]; suvorexant 40 mg + rifampin,0 (0) n (%)
same,AE: Headache,[7]; suvorexant 40 mg + rifampin,2 (20) n (%)
same,AE: Nausea,[7]; suvorexant 40 mg + rifampin,0 (0) n (%)
same,AE: Somnolence,[7]; suvorexant 40 mg + rifampin,9 (90) n (%)
same,AE: Vessel puncture site hematoma,[7]; suvorexant 40 mg + rifampin,0 (0) n (%)
same,ECI: Euphoric mood,[7]; suvorexant 40 mg + rifampin,0 (0) n (%)
same,ECI: Hypnagogic hallucination,[7]; suvorexant 40 mg + rifampin,0 (0) n (%)
same,ECI: Hypnopompic hallucination,[7]; suvorexant 40 mg + rifampin,0 (0) n (%)
same,ECI: Sleep paralysis,[7]; suvorexant 40 mg + rifampin,0 (0) n (%)
same,Subjects with ≥ 1 AE,[7]; suvorexant 40 mg + rifampin,10 (100) n (%)
same,Subjects with ≥ 1 AE,"[7]; suvorexant 40 mg + rifampin, listed as suvorexant",10 (100%) n (%)
same,AE: Abnormal dreams,[7]; suvorexant 40 mg alone,2 (20) n (%)
same,AE: Diarrhea,[7]; suvorexant 40 mg alone,0 (0) n (%)
same,AE: Headache,[7]; suvorexant 40 mg alone,1 (10) n (%)
same,AE: Nausea,[7]; suvorexant 40 mg alone,0 (0) n (%)
same,AE: Somnolence,[7]; suvorexant 40 mg alone,10 (100) n (%)
same,AE: Vessel puncture site hematoma,[7]; suvorexant 40 mg alone,3 (30) n (%)
same,ECI: Euphoric mood,[7]; suvorexant 40 mg alone,1 (10) n (%)
same,ECI: Hypnagogic hallucination,[7]; suvorexant 40 mg alone,1 (10) n (%)
same,ECI: Hypnopompic hallucination,[7]; suvorexant 40 mg alone,1 (10) n (%)
same,ECI: Sleep paralysis,[7]; suvorexant 40 mg alone,1 (10) n (%)
same,Subjects with ≥ 1 AE,[7]; suvorexant 40 mg alone,10 (100) n (%)
same,ECI: Euphoric mood,[7]; [11],1 n (%)
same,ECI: Hypnagogic hallucination,[7]; [11],1 n (%)
same,ECI: Hypnopompic hallucination,[7]; [11],1 n (%)
same,ECI: Sleep paralysis,[7]; [11],1 n (%)
same,Subjects with ≥ 1 AE,[7]; [11],10 (100%) n (%)
same,Duration of ECI hypnopompic hallucination,[7]; suvorexant 40 mg in the rifampin sub-study,1 min
same,Prolongation (increase) in t½ on co-administration with diltiazem,"[8]; Study P038 diltiazem sub-study, suvorexant 20 mg, diltiazem 240 mg once daily",3.7 h
same,AUC(0-inf),"[8]; human, plasma, po, 20 mg",7.88 µM·h
same,Cmax,"[8]; human, plasma, po, 20 mg",620 nM
same,Tmax,"[8]; human, plasma, po, 20 mg",1.5 h
same,half-life,"[8]; human, plasma, po, 20 mg",12.4 h
same,Effect on psychomotor performance,[9],no clinically meaningful effect on psycho-motor performance
same,Reaction time (choice reaction time and simple reaction time),[9],statistically significant prolongation in reaction time
